Experiment: Solubility of the pure product in mixed solvents of ethanol and water
Type: physicochemical
Procedure: One-hundred milliliters each of mixed solvents of ethanol and water in predetermined volume ratios were respectively adjusted to predetermined temperatures and each […] of N-(1(S)-ethoxycarbonyl-3-phenylpropyl)-L-alanine was no longer dissolved. After 30 minutes of standing, the supernatant was taken and the solubility (weight %) was determined according to the weight after concentration to dryness/the weight of the solution.

CCOC(=O)[C@H](CCc1ccccc1)N[C@@H](C)C(=O)O [N-(1(S)-ethoxycarbonyl-3-phenylpropyl)-L-alanine]
Solubility (ethanol/water volume ratio 0.43, 10° C.): 1 weight %
Solubility (ethanol/water volume ratio 0.43, 65° C.): 9 weight %
Solubility (ethanol/water volume ratio 1.00, 10° C.): 2 weight %
Solubility (ethanol/water volume ratio 1.00, 20° C.): 3 weight %
Solubility (ethanol/water volume ratio 1.00, 65° C.): 21 weight %
Solubility (ethanol/water volume ratio 2.33, 10° C.): 3 weight %
Solubility (ethanol/water volume ratio 2.33, 20° C.): 4 weight %
Solubility (ethanol/water volume ratio 2.33, 65° C.): 42 weight %
Solubility (ethanol/water volume ratio 4.00, 10° C.): 4 weight %
Solubility (ethanol/water volume ratio 4.00, 20° C.): 5 weight %
Solubility (ethanol/water volume ratio 4.00, 65° C.): 45 weight %
Solubility (ethanol/water volume ratio 5.67, 10° C.): 3 weight %
Solubility (ethanol/water volume ratio 5.67, 20° C.): 5 weight %
Solubility (ethanol/water volume ratio 5.67, 65° C.): 42 weight %
Solubility (ethanol/water volume ratio 15.7, 10° C.): 3 weight %
Solubility (ethanol/water volume ratio 15.7, 20° C.): 4 weight %
Solubility (ethanol/water volume ratio 15.7, 65° C.): 26 weight %
Solubility (ethanol/water volume ratio 249, 10° C.): 2 weight %
Solubility (ethanol/water volume ratio 249, 20° C.): 3 weight %
Solubility (ethanol/water volume ratio 249, 65° C.): 17 weight %

Reference: patent US7071349B2, “Purification method of N-(1(S)-ethoxycarbonyl-3-phenylpropyl)-L-alanine” (Kanaka Corporation, priority 2001, dated 2006)
